Each structure is given as a SMILES string. Where a name gives a salt, the structure may show the parent alone.

What all share (assay type): biochemical
For one test, the target named is T1, human KDR enzyme (Homo sapiens, UniProt P35968).
T1 construct: The cytoplasmic domain of the human KDR enzyme was cloned in the form of a GST fusion; GST; made in house; host or cells: SF21 insect cells (baculovirus, pFastBac)
The test can be described thus: KDR substrate phosphorylation assay (scintillation, 96-well plate). On the procedure: The inhibitory effect of the compounds is determined in an assay of substrate phosphorylation by the KDR enzyme in vitro using a scintillation technique (96-well plate, NEN).
The cytoplasmic domain of the human KDR enzyme was cloned in the form of a GST fusion into the baculovirus expression vector pFastBac. The protein was expressed in SF21 cells and purified to approximately 60% homogeneity.
The KDR kinase activity is measured in 20 mM MOPS, 10 mM MgCl2, 10 mM MnCl2, 1 mM DTT, 2.5 mM EGTA, 10 mM β-glycerophosphate, pH=7.2, in the presence of 10 mM MgCl2, 100 μM Na3VO4, 1 mM NaF. 10 μl of the compound are added to 70 μl of kinase buffer, containing 100 ng of KDR enzyme at 4° C. The reaction is triggered by adding 20 μl of solution containing 2 μg of substrate (SH2-SH3 fragment of PLCγ expressed in the form of a GST fusion protein), 2 μCi γ^33P[ATP] and 2 μM cold ATP. After 1 hour of incubation at 37° C., the reaction is stopped by adding 1 volume (100 μl) of 200 mM EDTA. The incubation buffer is withdrawn and the wells are washed three times with 300 μl of PBS. The radioactivity is measured in each well using a Top Count NXT radioactivity counter (Packard).
The background noise is determined by measuring the radioactivity in four different wells containing the radioactive ATP and the substrate alone.
A control for total activity is measured in four different wells containing all of the reagents (γ^33P-[ATP], KDR and PLCγ substrate), but in the absence of compound.
The inhibition of KDR activity with the compound of the invention is expressed in percentage inhibition of the control activity determined in the absence of compound.
The compound SU5614 (Calbiochem) (1 μM) is included in each plate as an inhibition control.

The target in a further test is T2, human Tie2 (Homo sapiens, UniProt Q02763).
T2 construct: amino acids of the intracellular domain 776-1124; made in house
T2 sequence (Q02763 776-1124): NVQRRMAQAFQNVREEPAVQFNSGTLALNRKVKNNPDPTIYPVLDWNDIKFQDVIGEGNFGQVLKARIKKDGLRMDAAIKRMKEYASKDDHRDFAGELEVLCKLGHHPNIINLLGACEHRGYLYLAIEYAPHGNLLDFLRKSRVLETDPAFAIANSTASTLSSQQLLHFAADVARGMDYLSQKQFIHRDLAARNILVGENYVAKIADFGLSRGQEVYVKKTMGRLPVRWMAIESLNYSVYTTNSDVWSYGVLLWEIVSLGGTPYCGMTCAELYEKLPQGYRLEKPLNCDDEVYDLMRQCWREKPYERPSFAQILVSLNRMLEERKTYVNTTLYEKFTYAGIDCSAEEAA
The test can be described thus: Tie2 assay of PLC phosphorylation (FlashPlate). Particulars: read-out: IC 50 TIE2. On the procedure:
The coding sequence of human Tie2, corresponding to the amino acids of the intracellular domain 776-1124, was generated by PCR, using the cDNA isolated from human placenta as a model. This sequence was introduced into a baculovirus expression vector pFastBacGT in the form of a GST fusion protein.
The inhibitory effect of the molecules is determined in an assay of PLC phosphorylation by Tie2 in the presence of GST-Tie2 purified to approximately 80% homogeneity. The substrate is composed of the SH2-SH3 fragments of PLC expressed in the form of a GST fusion protein.
The kinase activity of Tie2 is measured in a 20 mM MOPS buffer, pH 7.2, containing 10 mM MgCl2, 10 mM MnCl2, 1 mM DTT, 10 mM of glycerol-phosphate. In a 96-well FlashPlate plate, kept on ice, a reaction mixture is deposited which is composed of 70 μl of kinase buffer containing 100 ng of GST-Tie2 enzyme per well. Subsequently 10 μl of the test molecule diluted to a concentration of 10% maximum in DMvSO are added. For a given concentration, each measurement is carried out in quadruplicate. The reaction is initiated by adding 20 μl of solution containing 2 μg of GST-PLC, 2 μM of cold ATP and 1 μCi of ^33P[ATP]. After 1 hour of incubation at 37° C., the reaction is terminated by adding 1 volume (100 μl) of 200 mM EDTA. Following removal of the incubation buffer, the wells are washed three times with 300 μl of PBS. The radioactivity is measured on a Wallac MicroBeta 1450.
The inhibition of Tie2 activity is calculated and expressed as a percentage inhibition relative to the control activity determined in the absence of compound.

A further test addresses T3, Aurora2 (Homo sapiens, UniProt O14965).
T3 construct: Aurora 2: whole recombinant protein comprising an N-terminal histidine tail; His tag (histidine tail) (N); made in house; host or cells: E. coli
T3 sequence (O14965 1-403): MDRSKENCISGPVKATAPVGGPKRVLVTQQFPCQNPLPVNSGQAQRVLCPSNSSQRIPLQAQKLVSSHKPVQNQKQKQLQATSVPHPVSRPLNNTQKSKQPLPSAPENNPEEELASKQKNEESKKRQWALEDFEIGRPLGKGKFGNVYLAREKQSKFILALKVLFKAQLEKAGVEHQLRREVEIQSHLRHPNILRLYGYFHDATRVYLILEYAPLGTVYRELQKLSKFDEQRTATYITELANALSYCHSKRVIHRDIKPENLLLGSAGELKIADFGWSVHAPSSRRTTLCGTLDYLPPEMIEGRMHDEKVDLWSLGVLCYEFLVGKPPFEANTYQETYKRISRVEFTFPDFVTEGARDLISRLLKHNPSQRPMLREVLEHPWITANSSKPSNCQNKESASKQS
The test can be described thus: Aurora2 enzyme assay, NuMA substrate phosphorylation (Flashplate). Particulars: read-out: IC 50 Aurora2. The procedure:
The inhibitory effect of compounds with respect to the kinases Aurora1 and Aurora2 is determined by an enzyme assay employing radioactivity detection.
The kinase activity of Aurora 1 and Aurora 2 is evaluated by the phosphorylation of the substrate Numa-histidine in the presence of radiolabeled ATP ([^33P]ATP), using 96-well Flashplate plates in which nickel chelate is fixed to the surface of the microplate. The amount of ^33P phosphate incorporated in the NuMA substrate is proportional to the activity of the enzyme Aurora1 or Aurora2.
The proteins are produced in the protein production laboratory of the SanofiAventis group.
Aurora 2: whole recombinant protein comprising an N-terminal histidine tail, expressed in E. coli and purified to more than 82%.
NuMA (nuclear protein that associates with the mitotic apparatus) fragment of 424 amino acids, expressed in E. coli, whose N-terminal end has been labeled with histidine and used as a substrate for the two Aurora enzymes.
The microplates used are 96-well Flash-Plate plates with nickel chelate (Perkin Elmer, model SMP107).
The products for evaluation are incubated in a reaction volume of 100 μL per well in the presence of 10 nM of Aurora 1 or Aurora 2, 500 nM of NuMA substrate in a buffer composed of 50 mM of Tris/HCl (pH 7.5), 50 mM NaCl, 5 mM MgCl2 (Aurora-B) or 10 mM MgCl2 (Aurora-A) and 1 mM of DTT, at 37° C.
In each well, 80 μL of the enzyme/substrate incubation buffer are distributed, followed by 10 μL of the product to be evaluated, in variable concentrations. The reaction is initiated by adding 1 μM of final ATP containing 0.2 μCi of [^33P]ATP (10 μL). After 30 minutes of incubation, the reaction is terminated by simply removing the reaction buffer and each well is washed twice with 300 μl of the Tris/HCl buffer. The radioactivity is then measured in each well by means of a scintillation apparatus, Packard, Top count model.
The control enzyme activity of Aurora is expressed by the number of counts per minute obtained within 30 minutes, after deduction of the background noise (reaction mixture not containing the enzyme). The evaluation of the various test products is expressed in percentage inhibition of the Aurora activity relative to the control.

T1 sequence (P35968 786-1356 limits assumed): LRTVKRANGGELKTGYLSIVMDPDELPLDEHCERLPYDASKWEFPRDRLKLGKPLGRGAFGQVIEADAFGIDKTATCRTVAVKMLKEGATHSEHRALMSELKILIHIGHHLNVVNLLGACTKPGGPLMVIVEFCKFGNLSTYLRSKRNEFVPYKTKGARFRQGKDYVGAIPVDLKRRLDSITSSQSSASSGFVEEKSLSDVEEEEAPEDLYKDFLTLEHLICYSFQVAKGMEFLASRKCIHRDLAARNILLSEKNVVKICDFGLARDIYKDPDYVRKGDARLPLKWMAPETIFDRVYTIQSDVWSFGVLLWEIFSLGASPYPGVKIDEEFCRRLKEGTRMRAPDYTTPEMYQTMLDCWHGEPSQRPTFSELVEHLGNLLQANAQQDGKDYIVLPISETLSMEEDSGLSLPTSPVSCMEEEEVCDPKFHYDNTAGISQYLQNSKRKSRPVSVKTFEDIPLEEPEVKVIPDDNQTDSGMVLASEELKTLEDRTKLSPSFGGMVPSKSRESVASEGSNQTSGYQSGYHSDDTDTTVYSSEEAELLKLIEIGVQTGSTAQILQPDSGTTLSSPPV

As for `O=C(Nc1ccc(-c2ccc3c(NC(=O)C4CCCN4)n[nH]c3c2F)cc1)Nc1cc(C(F)(F)F)ccc1F` [Example 26, 1-(4-{7-Fluoro-3-[(L-pyrrolidin-2-yl)carbonylamino]-1H-indazol-6-yl}phenyl)-3-(2-fluoro-5-trifluoromethylphenyl)urea], the results for the IC50 against human KDR enzyme, on human Tie2 and at Aurora2 were 1050 nM, 626 nM and 3380 nM, respectively.

`CC(=O)Nc1n[nH]c2c(F)c(-c3ccc(NC(=O)Nc4cc(C(F)(F)F)ccc4F)cc3)ccc12` [Example 27, 1-(4-{7-Fluoro-3-acetylamino-1H-indazol-6-yl}phenyl)-3-(2-fluoro-5-trifluoromethylphenyl)urea]: the results for the IC50 against human KDR enzyme, at human Tie2 and on Aurora2 were 79 nM, 143 nM and 335 nM, respectively.

For the compound `CC(C)(C)c1cc(NC(=O)Nc2ccc(-c3ccc4c(NC(=O)c5ccsc5)n[nH]c4c3F)cc2)no1` [Example 13, 1-(4-{7-Fluoro-3-[(thiophen-3-yl)carbonylamino]-1H-indazol-6-yl}phenyl)-3-(5-tert-butylisoxazol-3-yl)urea], the IC50 at human KDR enzyme stood at 29 nM; at human Tie2, 31 nM; on Aurora2, 65 nM.

For the compound `Cc1cc(-c2ccc3c(NC(=O)c4ccsc4)n[nH]c3c2F)ccc1NC(=O)Nc1cc(C(F)(F)F)ccc1F` [Example 23, 1-(4-{7-Fluoro-3-[(thiophen-3-yl)carbonylamino]-1H-indazol-6-yl}-2-methylphenyl)-3-(2-fluoro-5-trifluoromethylphenyl)urea], the IC50 stood at 15 nM against human KDR enzyme, 16 nM at human Tie2 and 296 nM on Aurora2.

As to `Nc1n[nH]c2c(F)c(-c3ccc(NC(=O)Nc4cc(C(F)(F)F)ccc4F)cc3)ccc12` [Example 7, 1-[4-(3-Amino-7-fluoro-1H-indazol-6-yl)phenyl]-3-(2-fluoro-5-trifluoro-methylphenyl)urea hydrochloride], the IC50 on human KDR enzyme came out at 122 nM; at human Tie2 it was 51 nM; on Aurora2 it was 172 nM.

Turning to `Cc1ccc(-n2nc(C(C)(C)C)cc2NC(=O)Nc2ccc(-c3ccc4c(N)n[nH]c4c3F)cc2)cc1` [Example 25, 1-[4-(3-Amino-7-fluoro-1H-indazol-6-yl)phenyl]-3-(5-tert-butyl-2-p-tolyl-2H-pyrazol-3-yl)urea], the IC50 at human KDR enzyme was determined as 11 nM; at human Tie2, 17 nM; at Aurora2 it was 94 nM.

On to `O=C(Nc1ccc(-c2ccc3c(NC(=O)c4ccsc4)n[nH]c3c2F)cc1)Nc1cccc(C(F)(F)F)c1` [Example 15, 1-(4-{7-Fluoro-3-[(thiophen-3-yl)carbonylamino]-1H-indazol-6-yl}phenyl)-3-(5-trifluoromethylphenyl)urea], for which the IC50 on human KDR enzyme was 40 nM; at human Tie2, 20 nM; at Aurora2, 28 nM.

With `O=C(Nc1ccc(-c2ccc3c(NC(=O)c4ccsc4)n[nH]c3c2F)cc1)Nc1cc(C(F)(F)F)ccc1F` [Example 6, 1-(4-{7-Fluoro-3-[(thiophen-3-yl)carbonylamino]-1H-indazol-6-yl}phenyl)-3-(2-fluoro-5-trifluoromethylphenyl)urea], the IC50 on human KDR enzyme turned out to be 8 nM; at human Tie2, 9 nM; on Aurora2, 36 nM.

(Values after patent publication US7517902B2, “Substituted indazoles, compositions containing the same, and the preparation and use thereof” (Aventis Pharma S.A., priority 2004, dated 2009).)
